Source: ChEMBL document CHEMBL3885861, “Open TG-GATES”

Organism: Rattus norvegicus
Assay: Open TG-GATES - Regimen: Daily Repeat
Assay type: toxicity, organism-based, Sprague-Dawley
Design: regimen Daily Repeat, gender Male, age 6 weeks
Conditions: in vivo, po, 100 mg/kg, route gavage, dose level Middle; for APTT / Bas / Eos / Fbg / Hb / Ht / Lym / MCH / MCHC / MCV / Mono / Neu / PT / Plat / RBC / Ret / WBC: tissue Blood; for KIDNEY_L / KIDNEY_R / KIDNEY_TOTAL: tissue Kidney; for LIVER: tissue Liver; for ALP / ALT / AST / BUN / CRE / DBIL / GLC / IP / K / LDH / Na / PL / RALB / TBIL / TC / TG / TP / gamma-GTP: tissue Plasma

SMILES: Clc1ccccc1CN1CCc2sccc2C1 [TICLOPIDINE]
- TERMINAL_BW (72 h, time 3 day): 224.9 g
- APTT (72 h, time 3 day): 21.3 s
- Bas (72 h, time 3 day): 1%
- Eos (72 h, time 3 day): 1%
- Fbg (72 h, time 3 day): 224 mg/dL
- Hb (72 h, time 3 day): 13.4 g/dL
- Ht (72 h, time 3 day): 37.8%
- Lym (72 h, time 3 day): 80.6%
- MCH (72 h, time 3 day): 21.5 pg
- MCHC (72 h, time 3 day): 35.5%
- MCV (72 h, time 3 day): 60.4 fL
- Mono (72 h, time 3 day): 2.6%
- Neu (72 h, time 3 day): 14.6%
- PT (72 h, time 3 day): 11.3 s
- Plat (72 h, time 3 day): 125.6 x10_4/uL
- RBC (72 h, time 3 day): 626.4 x10_4/ul
- Ret (72 h, time 3 day): 5.6%
- WBC (72 h, time 3 day): 100.7 x10_2/uL
- KIDNEY_L (72 h, time 3 day): 1 g
- KIDNEY_R (72 h, time 3 day): 1 g
- KIDNEY_TOTAL (72 h, time 3 day): 1.9 g
- LIVER (72 h, time 3 day): 11.8 g
- ALP (72 h, time 3 day): 968 IU/L
- ALT (72 h, time 3 day): 38.2 IU/L
- AST (72 h, time 3 day): 65.8 IU/L
- BUN (72 h, time 3 day): 15.4 mg/dL
- CRE (72 h, time 3 day): 0.4 mg/dL
- DBIL (72 h, time 3 day): 0.07 mg/dL
- GLC (72 h, time 3 day): 195.6 mg/dL
- IP (72 h, time 3 day): 7.3 mg/dL
- K (72 h, time 3 day): 4 meq/L
- LDH (72 h, time 3 day): 152.8 IU/L
- Na (72 h, time 3 day): 142.2 meq/L
- PL (72 h, time 3 day): 162.6 mg/dL
- RALB (72 h, time 3 day): 3.3 g/dL
- TBIL (72 h, time 3 day): 0.1 mg/dL
- TC (72 h, time 3 day): 89.8 mg/dL
- TG (72 h, time 3 day): 69.8 mg/dL
- TP (72 h, time 3 day): 5.5 g/dL
- gamma-GTP (72 h, time 3 day): 0.8 IU/L
- TERMINAL_BW ([…], time 7 day): 258 g
- TERMINAL_BW ([…], time 14 day): 306.1 g
- TERMINAL_BW ([…], time 28 day): 394.5 g
- APTT ([…], time 7 day): 22.3 s
- Bas ([…], time 7 day): 0.6%
- Eos ([…], time 7 day): 0.8%
- Fbg ([…], time 7 day): 227.4 mg/dL
- Hb ([…], time 7 day): 13.6 g/dL
- Ht ([…], time 7 day): 38.2%
- MCH ([…], time 7 day): 21.4 pg
- MCHC ([…], time 7 day): 35.5%
- MCV ([…], time 7 day): 60.4 fL
- Mono ([…], time 7 day): 2.6%
- Neu ([…], time 7 day): 13%
- PT ([…], time 7 day): 11.6 s
- Plat ([…], time 7 day): 123.7 x10_4/uL
- RBC ([…], time 7 day): 633.2 x10_4/ul
- Ret ([…], time 7 day): 5.4%
- WBC ([…], time 7 day): 117.5 x10_2/uL
- APTT ([…], time 14 day): 19.9 s
- Bas ([…], time 14 day): 0.8%
- Eos ([…], time 14 day): 0.8%
- Fbg ([…], time 14 day): 220.4 mg/dL
- Hb ([…], time 14 day): 14.5 g/dL
- Ht ([…], time 14 day): 40.6%
- Lym ([…], time 14 day): 80.6%
- MCH ([…], time 14 day): 21.3 pg
- MCHC ([…], time 14 day): 35.7%
- MCV ([…], time 14 day): 59.6 fL
- Mono ([…], time 14 day): 2.2%
- Neu ([…], time 14 day): 15.4%
- PT ([…], time 14 day): 11.8 s
- Plat ([…], time 14 day): 114.3 x10_4/uL
- RBC ([…], time 14 day): 681 x10_4/ul
- Ret ([…], time 14 day): 4.3%
- WBC ([…], time 14 day): 108.6 x10_2/uL
- APTT ([…], time 28 day): 18.7 s
- Bas ([…], time 28 day): 1%
- Eos ([…], time 28 day): 0.8%
- Fbg ([…], time 28 day): 219.8 mg/dL
- Hb ([…], time 28 day): 15.3 g/dL
- Ht ([…], time 28 day): 41.1%
- Lym ([…], time 28 day): 81.6%
- MCH ([…], time 28 day): 20 pg
- MCHC ([…], time 28 day): 37.4%
- MCV ([…], time 28 day): 53.4 fL
- Mono ([…], time 28 day): 2.2%
- Neu ([…], time 28 day): 13.6%
- PT ([…], time 28 day): 11.6 s
- Plat ([…], time 28 day): 114.7 x10_4/uL
- RBC ([…], time 28 day): 770 x10_4/ul
- Ret ([…], time 28 day): 3%
- WBC ([…], time 28 day): 136.4 x10_2/uL
- KIDNEY_L ([…], time 7 day): 1.2 g
- KIDNEY_R ([…], time 7 day): 1.2 g
- KIDNEY_TOTAL ([…], time 7 day): 2.3 g
- KIDNEY_L ([…], time 14 day): 1.2 g
- KIDNEY_R ([…], time 14 day): 1.2 g
- KIDNEY_TOTAL ([…], time 14 day): 2.5 g
- KIDNEY_L ([…], time 28 day): 1.5 g
- KIDNEY_R ([…], time 28 day): 1.5 g
- KIDNEY_TOTAL ([…], time 28 day): 3 g
- LIVER ([…], time 7 day): 13 g
- LIVER ([…], time 14 day): 14.1 g
- LIVER ([…], time 28 day): 17.9 g
- ALP ([…], time 7 day): 969.2 IU/L
- ALT ([…], time 7 day): 39.4 IU/L
- AST ([…], time 7 day): 73.2 IU/L
- BUN ([…], time 7 day): 14.8 mg/dL
- CRE ([…], time 7 day): 0.4 mg/dL
- DBIL ([…], time 7 day): 0.068 mg/dL
- GLC ([…], time 7 day): 192.6 mg/dL
- IP ([…], time 7 day): 7.2 mg/dL
- K ([…], time 7 day): 3.9 meq/L
- LDH ([…], time 7 day): 144.8 IU/L
- Na ([…], time 7 day): 142.4 meq/L
- PL ([…], time 7 day): 145.4 mg/dL
- RALB ([…], time 7 day): 3.5 g/dL
- TBIL ([…], time 7 day): 0.1 mg/dL
- TC ([…], time 7 day): 74.8 mg/dL
- TG ([…], time 7 day): 68.2 mg/dL
- TP ([…], time 7 day): 5.7 g/dL
- gamma-GTP ([…], time 7 day): 0.8 IU/L
- ALP ([…], time 14 day): 792.6 IU/L
- ALT ([…], time 14 day): 36.6 IU/L
- AST ([…], time 14 day): 68.8 IU/L
- BUN ([…], time 14 day): 15.8 mg/dL
- CRE ([…], time 14 day): 0.4 mg/dL
- DBIL ([…], time 14 day): 0.06 mg/dL
- GLC ([…], time 14 day): 205 mg/dL
- IP ([…], time 14 day): 7.5 mg/dL
- K ([…], time 14 day): 3.8 meq/L
- LDH ([…], time 14 day): 161.8 IU/L
- Na ([…], time 14 day): 143.4 meq/L
- PL ([…], time 14 day): 152.2 mg/dL
- RALB ([…], time 14 day): 3.4 g/dL
- TBIL ([…], time 14 day): 0.098 mg/dL
- TC ([…], time 14 day): 78.8 mg/dL
- TG ([…], time 14 day): 94.2 mg/dL
- TP ([…], time 14 day): 5.7 g/dL
- gamma-GTP ([…], time 14 day): 1 IU/L
- ALP ([…], time 28 day): 625.8 IU/L
- ALT ([…], time 28 day): 44 IU/L
- AST ([…], time 28 day): 71.6 IU/L
- BUN ([…], time 28 day): 17.6 mg/dL
- CRE ([…], time 28 day): 0.5 mg/dL
- DBIL ([…], time 28 day): 0.072 mg/dL
- GLC ([…], time 28 day): 202.8 mg/dL
- IP ([…], time 28 day): 7.5 mg/dL
- K ([…], time 28 day): 3.8 meq/L
- LDH ([…], time 28 day): 152.4 IU/L
- Na ([…], time 28 day): 142.2 meq/L
- PL ([…], time 28 day): 154.8 mg/dL
- RALB ([…], time 28 day): 3.6 g/dL
- TBIL ([…], time 28 day): 0.1 mg/dL
- TC ([…], time 28 day): 76.8 mg/dL
- TG ([…], time 28 day): 82.8 mg/dL
- TP ([…], time 28 day): 6.3 g/dL
- gamma-GTP ([…], time 28 day): 0.8 IU/L
